From BindingDB's records for patent US9695170 (FibroGen Inc, 2017) come the findings set out here.

Egl nine homolog 1, sequence (Q9GZT9 whole entry): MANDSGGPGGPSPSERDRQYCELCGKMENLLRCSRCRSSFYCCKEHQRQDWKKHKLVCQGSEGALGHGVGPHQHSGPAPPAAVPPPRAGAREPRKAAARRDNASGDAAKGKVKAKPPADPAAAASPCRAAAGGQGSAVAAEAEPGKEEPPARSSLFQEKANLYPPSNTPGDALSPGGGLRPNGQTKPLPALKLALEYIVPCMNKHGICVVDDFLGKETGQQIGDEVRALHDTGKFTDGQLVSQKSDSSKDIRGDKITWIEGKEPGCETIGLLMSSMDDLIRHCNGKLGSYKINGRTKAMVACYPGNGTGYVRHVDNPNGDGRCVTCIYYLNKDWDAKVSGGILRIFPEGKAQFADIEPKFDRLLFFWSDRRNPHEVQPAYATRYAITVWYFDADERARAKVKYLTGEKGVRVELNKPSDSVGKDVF

The assay has as its target Egl nine homolog 1 (Homo sapiens, UniProt Q9GZT9). Put plainly: HIF-PH Assay. As to conditions: pH 7.4. From the text:
Ketoglutaric acid α-[1-14C]-sodium salt, alpha-ketoglutaric acid sodium salt, and HPLC purified peptide may be obtained from commercial sources, e.g., Perkin-Elmer (Wellesley Mass.), Sigma-Aldrich, and SynPep Corp. (Dublin Calif.), respectively. […] For example, a HIF peptide for use in the HIF-PH assay is [methoxycoumarin]-[…]-amide. HIF-PH, e.g., HIF-PH2 (EGLN1), can be expressed in, e.g., insect Hi5 cells, and partially purified, e.g., through a SP ion exchange chromatography column. […] Reactions are initiated by addition of HIF-PH enzyme.
In the case of `Cc1ccncc1-c1nc(C(=O)NCCC(=O)O)c(O)c2cc(-c3ccccc3)c(=O)n(Cc3ccccc3)c12` [US9695170 179], the IC50 (commonly the concentration that gives 50% inhibition) came to 176 µM.

On to `COC(=O)NCCNC(=O)c1nc(C#N)c2ccc(=O)n(Cc3ccccc3)c2c1O` [US9695170 95], for which 134 µM corresponded to half-maximal inhibition (IC50). This IC50 and that of the molecule before are within 1.5-fold of each other.

The molecule `COC(=O)NCCNC(=O)c1ncc2ccc(=O)n(Cc3ccccc3)c2c1O` [US9695170 96] gave an IC50 of 137 µM.
